Source: patent US7371555B2, “Polypeptides having α-H-α-amino acid amide racemase activity and nucleic acids encoding the same” (DSM IP Assets B.V., priority 2002, dated 2008)
Residues, ends and D or L forms follow the SMILES beside them.

Experiments:
[1] = tested on: partially purified α-H-α-amino acid amide racemase from O. anthropi IA; assay: Substrate specificity of the partially purified racemase (Example 8); assay type: biochemical, Ochrobactrum anthropi IA; set-up: tested at 75 mM; settings: relative to the activity towards L-leucine amide; pH 8.0, 37° C.
Protocol: The substrate specificity of the O. anthropi IA α-H-α-amino acid amide racemase was determined using the partially purified enzyme preparation obtained by the protocol described above. Reaction mixtures of 1 ml total volume were prepared by mixing 772 μl of 66.6 mM HEPES-NaOH, pH 8.0, 10 μl of 0.1 M dithiothreitol, 18 μl of a solution containing 20 mg/ml BSA and 1 mM pyridoxal-5-phosphate, and 100 μl of a 0.75 M substrate solution, pH 8.0. After equilibration for 5 minutes at 37° C., the reactions were started by the addition of 100 μl of the enzyme solution. Reaction mixtures were incubated at 37° C. without shaking. After regular time intervals, samples of 50 μl were taken and transferred into vials containing 950 μl of 1 M H3PO4 to stop the reaction. After sufficient dilution of the samples in 0.4 M borate buffer pH 9.4, the mixtures obtained were analyzed using HPLC to determine the exact concentrations of two amino acid amide enantiomers according to the method of Example 7.
Initial activity for the different substrates tested was calculated from the linear parts of the progress curves, in which the amount of the amino acid amide enantiomer formed (so with a stereochemistry opposite to the substrate molecule) was plotted against the reaction time.

[2] = tested on: α-H-α-amino acid amide racemase from Ochrobactrum anthropi IA; assay: Substrate specificity, CFE from E. coli TOP10/pKEC_AZAR_3 (Example 7); assay type: biochemical; settings: relative to the activity towards D-leucine amide; 75 mM substrate, 20 mM EDTA, pH 8.0, 37° C.
Protocol: Two pre-cultures of E. coli TOP10/pKEC_AZAR—3 (see Example 4) were prepared by inoculation of 2 erlenmeyer flasks with 100 ml of 2*TY medium (10 g/l Yeast extract, 16 g/l Tryptone, 5 g/l NaCl) containing 50 mg/l of kanamycin with 10 μl of a glycerol stock per flask. After overnight cultivation at 28° C. and 200 rpm, the pre-cultures were pooled, and subsequently used to inoculate 2 erlenmeyer flasks each containing 1 l of the same medium. Also these flasks were cultivated at 28° C. and 200 rpm for 16-18 h. Cells were harvested by centrifugation (15 min. at 6,200×g, 4° C.), washed with 20 mM HEPES-NaOH, pH 7.5, pooled, weighed, and resuspended in a solution containing 20 mM HEPES-NaOH, pH 7.5, 20 μM pyridoxal-5-phosphate, and 1.3 mM of dithiothreitol in a 1:3 ratio of wet weight cells to solution. Then, cells were disintegrated by 10 min. sonification with a Soniprep 150 of MSE operated at maximum amplitude using time intervals of 10 sec. (i.e., 10 sec. sonification, 10 sec. cooling) and cooling in ice/acetone. Particles were removed by centrifugation, after which sucrose was added to the cell free extract to a final concentration of 0.25 M. The resulting cell free extract (CFE) was stored in aliquots at −20° C. E. coli TOP10/pBAD/Myc-HisC (Invitrogen) cells were treated in exactly the same way and served as negative control.
The substrate specificity of the α-H-α-amino acid racemase from O. anthropi IA was determined by measuring the racemase activity of the above-mentioned CFE towards a number of enantiomerically pure amino acid amides. Each reaction mixture of 10 ml (including the CFE) contained 50 mM HEPES-NaOH, pH 8.0, 20 μM pyridoxal-5-phosphate, 0.4 mg/ml BSA, 1 mM dithiothreitol, 20 mM EDTA and 75 mM of one of the amino acid amides tested. Reactions were started by the addition of 1 ml of the thawed CFE of E. coli TOP10/pKEC_AZAR—3 or E. coli TOP10/pBAD/Myc-HisC (blank) and were incubated at 37° C. At regular time intervals samples of 1 ml were taken and transferred to vials containing 1 ml of 1M H3PO4 to stop the reaction. After sufficient dilution of the samples in 0.4 M borate buffer pH 9.4, the mixtures obtained were analyzed using HPLC to determine the exact concentrations of the two amino acid and two amino acid amide enantiomers according to the following method.
The initial activity for the different substrates tested was calculated from the linear parts of the progress curves, in which the conversion was plotted against the reaction time. Use of the linear part of the progress curves secured that only samples taken at time points at which the substrate concentration was still sufficiently high, were used for the calculations. The conversion was calculated by dividing the amount of amino acid and amino acid amide formed via the racemase reaction (so with the opposite stereochemistry compared to the substrate molecule) by the total amount of two amino acid enantiomers and the two amino acid amide enantiomers.

[3] = tested on: α-H-α-amino acid amide racemase from Arthrobacter nicotianae NCIMB 41126; assay: Substrate specificity, CFE from E. coli DH10B/pAn(1)PLV36D06 (Example 9); assay type: biochemical; settings: relative to the activity towards D-leucine amide; 75 mM substrate, pH 8.0, 37° C.
Protocol: Preparation of the CFE of E. coli DH10B/pAn(1)PLV36D06 was performed as described in Example 7 for E. coli TOP10/pKEC_AZAR—3
Before applying the CFE from E. coli DH10B/pAn(1)PLV36D06 in the reactions with different enantiomerically pure α-H-α-amino acid amides to determine the substrate specificity of the A. nicotianae α-H-α-amino acid amide racemase, the E. coli amidases/aminopeptidases in this CFE were inhibited by a pre-treatment with an inhibitor cocktail. One tablet of Complete Mini Protease Inhibitor Cocktail (Roche Applied Science, Mannheim, Germany) was dissolved in 9 ml of the CFE followed by an incubation of 1 hour at room temperature. Next, reaction mixtures of 10 ml each (including the CFE) were prepared containing 50 mM HEPES-NaOH, pH 8.0, 20 μM pyridoxal-5-phosphate, 0.4 mg/ml BSA, 1 mM dithiothreitol and 75 mM of one of the amino acid amides tested. Reactions were started by the addition of 1 ml of the pre-treated CFE of E. coli DH10B/pAn(1)PLV36D06 or E. coli TOP10/pBAD/Myc-HisC (blank) and were incubated at 37° C. At regular time intervals samples of 1 ml were taken and transferred to vials containing 1 ml of 1M H3PO4 to stop the reaction. After sufficient dilution of the samples in 0.4 M borate buffer pH 9.4, the mixtures obtained were analyzed using HPLC to determine the exact concentrations of the two amino acid and two amino acid amide enantiomers according to the method of Example 7.

[4] = tested on: E. coli clones with plasmid encoded A. nicotianae NCIMB 41126 α-H-α-amino acid amide racemase activity; assay: Confirmation of potential positive clones of the A. nicotianae NCIMB 41126 gene library; assay type: cell-based, Arthrobacter nicotianae NCIMB 41126; settings: 70 mM substrate, 10 μM pyridoxal-5-phosphate, 20 h at 30° C.
Protocol: Of all 32 potential positive clones identified in the screening, material from the masterplates was used to inoculate 3 ml of liquid screening medium containing 50 mg/l kanamycin. After growth for 2 days at 30° C., cells were collected by centrifuging 2 ml of these cell cultures. Then the cell pellets were washed four times in 25 mM Tris-HCl buffer, pH 7.5. Subsequently, the cell pellets were resuspended in 100 μl substrate solution containing 70 mM of D-phenylalanine amide, or D-leucine amide, or D-valine amide in 50 mM Tris-HCl, pH 7.5 and 1 mM MnCl2. After incubation for 20 h at 30° C., the reactions were stopped by the addition of 100 μl of 0.15 M HCl, after which the reaction mixtures were analyzed by the HPLC method described in Example 1.
Confirmation of both potential positive clones was done according to the protocol given in Example 3, with the exception that all 3 substrate solutions used contained 10 μM of pyridoxal-5-phosphate.

[5] = molecular target: T1, α-amino-ε-caprolactam racemase from Achromobacter obae (Achromobacter obae, UniProt Q7M181); settings: even when an excess amount of enzyme was used; cited from earlier work
T1 sequence (Q7M181 1-436): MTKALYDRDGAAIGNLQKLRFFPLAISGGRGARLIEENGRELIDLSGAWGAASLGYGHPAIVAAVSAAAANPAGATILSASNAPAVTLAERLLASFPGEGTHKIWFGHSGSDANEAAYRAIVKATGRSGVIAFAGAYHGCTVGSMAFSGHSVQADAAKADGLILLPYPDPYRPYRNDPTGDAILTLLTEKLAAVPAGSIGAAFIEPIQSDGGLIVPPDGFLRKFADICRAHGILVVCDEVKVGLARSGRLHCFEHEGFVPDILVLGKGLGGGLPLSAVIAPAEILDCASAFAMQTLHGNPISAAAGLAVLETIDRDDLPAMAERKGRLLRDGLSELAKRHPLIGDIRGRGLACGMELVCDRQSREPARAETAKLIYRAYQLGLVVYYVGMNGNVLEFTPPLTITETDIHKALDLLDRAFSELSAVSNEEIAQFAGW

[6] = tested on: lyophilized O. anthropi IA cells; assay: α-H-α-amino acid amide racemase activity of lyophilized O. anthropi IA cells; assay type: biochemical, Ochrobactrum anthropi IA; settings: approximately 72 hours at 40° C., 10 times diluted reaction mixture
Protocol: O. anthropi IA cells were cultivated in Medium A containing DL-α-amino-ε-caprolactam (2 g/l) as sole nitrogen source. After incubation at 28° C. and 200 rpm for three days (OD620 nm=4.7), cells were harvested by centrifugation, washed in 20 mM HEPES-NaOH buffer of pH 7.7 and lyophilized.
The assay mixture consisted of 10 mM HEPES-NaOH buffer (pH 7.7) containing toluene (2,5 v/v %), pyridoxal-5-phosphate (20 μM), D- or L-leucine amide (2.5 m %) and in some cases EDTA (20 mM). Per assay 150 mg of lyophilized cells were used. Chemical blanks (with the assay mixture without the O. anthropi IA cells) were used as a negative control. All reaction mixtures (including the blanks) were incubated for approximately 72 hours at 40° C. before the reaction was stopped by the addition of 9 volumes of 1 M H3PO4. Finally, the reaction mixtures were analyzed by HPLC to determine the concentrations of D- and L-leucine amide and of D- and L-leucine. o-Phthaldehyde in combination with D-3-mercapto-2-methylpropionic acid was used in this HPLC method as a chiral reagent for the enantioseparation of these amino compounds (Duchateau, et al., J. Chromatogr. (1992) 623:237-245).
In a number of reactions EDTA was added to inhibit L- and/or D-specific amidase(s) present in the O. anthropi IA cells.
Without EDTA, amidases convert the substrate and/or product α-H-α-amino acid amides into α-H-α-amino acids thereby preventing direct detection of the other α-H-α-amino acid amide enantiomer as racemization product. […] Formation of L-leucine from D-leucine amide could not be detected in the chemical blank.

| SMILES | Rel. initial activity [1] [%] | α-H-α-amino acid amide racemase activity [5] | other results |
| --- | --- | --- | --- |
| NC(=O)[C@H](N)CCCC1OCCO1 [D-2-amino-5-[1,3]dioxolan-2-yl-pentanoicacid amide] | 9.1 | – | – |
| C[C@@H](N)C(N)=O [D-alanine amide] | – | – | Rel. initial activity [2]: 85% |
| CCC[C@@H](N)C(N)=O [D-norvaline amide] | 341 | – | Rel. initial activity [2]: 94%; Rel. initial activity [3]: 107% |
| NC(=O)[C@H](N)c1ccccc1 [D-phenylglycineamide] | 9.1 | – | – |
| CC(C)[C@@H](N)C(N)=O [D-valine amide] | – | – | conversion of D-amide into L-acid [4]: significantly converted; Rel. initial activity [3]: 45% |
| CC[C@H](N)C(N)=O [L-2-aminobutyric acid amide] | 641 | – | Rel. initial activity [2]: 203%; Rel. initial activity [3]: 76% |
| C[C@H](N)C(N)=O [L-alanine amide] | 350 | – | – |
| CC(C)C[C@H](N)C(N)=O [L-leucine amide] | 100 | no α-H-α-amino acid amide racemase activity was found | D-leucine ([6]; with EDTA (20 mM)): 0.003 m %; D-leucine amide ([6]; with EDTA (20 mM)): 0.021 m %; L-leucine ([6]; with EDTA (20 mM)): 0.058 m %; L-leucine amide ([6]; with EDTA (20 mM)): 0.15 m %; D-leucine ([6]; without EDTA): 0.001 m %; D-leucine amide ([6]; without EDTA): <0.001 m %; L-leucine ([6]; without EDTA): 0.21 m %; L-leucine amide ([6]; without EDTA): <0.001 m % |
| CC(C)C[C@H](N)C(=O)N[C@@H](C)C(=O)O [L-leucyl-L-alanine] (H-Leu-Ala-OH) | – | no α-H-α-amino acid amide racemase activity was found | – |
| CC(C)C[C@H](N)C(=O)NCC(=O)O [L-leucyl-glycine] (H-Leu-Gly-OH) | – | no α-H-α-amino acid amide racemase activity was found | – |
| NC(=O)[C@@H](N)Cc1ccccc1 [L-phenylalanineamide] | 4.5 | – | – |
| NC(=O)[C@@H](N)CO [L-serine amide] | – | – | Rel. initial activity [2]: 83% |
| NC(=O)[C@@H](N)Cc1c[nH]c2ccccc12 [L-tryptophan amide] | – | no α-H-α-amino acid amide racemase activity was found | – |
| CC(C)[C@H](N)C(N)=O [L-valine amide] | 4.5 | – | – |
| CC(C)[C@H](N)C(=O)N[C@@H](C)C(=O)O [L-valyl-L-alanine] (H-Val-Ala-OH) | – | no α-H-α-amino acid amide racemase activity was found | – |
| CC(C)[C@H](N)C(=O)NCC(=O)O [L-valyl-glycine] (H-Val-Gly-OH) | – | no α-H-α-amino acid amide racemase activity was found | – |
| CC[C@H](C)[C@H](N)C(N)=O [LL-isoleucine amide] | 4.5 | – | – |
| C[C@H](O)[C@H](N)C(N)=O [LL-threonine amide] | 100 | – | – |
